This passage reports IC50 results from patent EP4813980A1, “EP300/CBP REGULATOR, AND PREPARATION METHOD THEREFOR AND USE THEREOF” (Miracure Biotechnology Limited, priority 2023, dated 2025).

Structures are written as SMILES.

Usually IC50 stands for the concentration that gives 50% inhibition.

Holding throughout (assay): Cell growth inhibition, CellTiter-Glo, 72 h
Common to all, as to assay type: cell-based
(Cellular ATP, detected with luciferase, serves as a proxy for viable cell number.)

Test [1] concerns MM1S cells. The note with it: Homo sapiens, MM1.S, 72 h culture, mean of N=2. On the procedure: (§1) 22RV1, vCap, MM1S and OPM-2 cells were cultured in RPMI-1640 medium (10% fetal bovine serum and 100 units of penicillin/streptomycin dual-antibody per mL were added to RPMI-1640) in a cell incubator at 37°C with 5% CO2, respectively. Cells in logarithmic growth phase were seeded into 96-well cell culture plates at 5×10^3 cells/100 µL/well and cultured overnight. Active compounds dissolved in DMSO at different concentrations were added with a final concentration of 0.5% DMSO. 1% Tween 20 was used as positive control and 0.5% DMSO was used as negative control. After 72 h of culture, an equal volume of CellTiter-Glo was added to each well, mixed by shaking for 2 min, and left standing at room temperature for 10 min. […] signal values were read with a microplate reader. Data were analyzed and graphs were generated using Prism 7.0. The values shown are mean ± SEM (N=2). […] The formula for inhibition rate is as follows: % Inhibition = (Icompound−IZPE)/(IHPE−IZPE) × 100 [formula]
(§2) The X-axis is compound concentration (nM), and the Y-axis is % Inhibition.

In test [2] the test system is 22RV1 cells. As to conditions: Homo sapiens, 72 h culture, mean of N=2. On the procedure: as §1, §2
The test system of test [3] is OPM-2 cells. As to conditions: Homo sapiens, 72 h culture, mean of N=2. The procedure: as §1, §2
Test [4] deals with vCap cells. The note with it: Homo sapiens, 72 h culture, mean of N=2. On the procedure:
as §1, §2

On to `C=CS(=O)(=O)N[C@H]1CC[C@@H](n2nc(N3CCCc4cc(-c5cnn(C)c5)c(C(F)F)cc43)c3c2CCN(C(=O)NC)C3)CC1` [Compound 1375, 3-(7-(difluoromethyl)-6-(1-methyl-1H-pyrazol-4-yl)-3,4-dihydroquinolin-1(2H)-yl)-N-methyl-1-((1s,4s)-4-(vinylsulfonamido)cyclohexyl)-1,4,6,7-tetrahydro-5H-pyrazolo[4,3-c]pyridine-5-carboxamide], for which the half-inhibitory concentration (IC50) in test [1] came to 2 nM; in test [2], 16 nM; in test [3], 1 nM; in test [4], 2 nM.
Turning to `CC(=O)N1Cc2cc(C3CCN(CC4CCN(c5ccc6c(c5)CN(C5CCC(=O)NC5=O)C6=O)CC4)CC3)cc(N3CCCc4cc(-c5cnn(C)c5)c(C(F)F)cc43)c2C1` (stereo not shown) [Compound 2058], the half-maximal inhibitory concentration (IC50) in test [1] amounted to 0.3 nM; in test [2], 0.31 nM; in test [3] it was 0.23 nM; in test [4], 0.29 nM.
Consider `C=C(F)C(=O)N1CCC(c2cc3c(c(N4CCCc5cc(-c6cnn(C)c6)c(C(F)F)cc54)c2)CN(C(C)=O)C3)CC1` [Compound 1365], for which the IC50 in test [2] was determined as 3350 nM; in test [3], 30 nM.
In the case of `CNC(=O)N1CCc2cc(C3CCN(C(=O)CCCCCCCCNc4ccc5c(c4)n(C)c(=O)n5C4CCC(=O)NC4=O)CC3)cc(N3CCCc4cc(-c5cnn(C)c5)c(C(F)F)cc43)c2C1` (stereo not shown) [Compound 2018], the IC50 in test [1] is 0.1 nM; in test [2], 0.01 nM; in test [3], 0.05 nM; in test [4], below 0.005 nM.
As for `CC(=O)N1Cc2cc([C@H]3CC[C@@H](CN4Cc5cc6c(cc5C4)C(=O)N(C4CCC(=O)NC4=O)C6=O)CC3)cc(N3CCCc4cc(-c5cnn(C)c5)c(C(F)F)cc43)c2C1` (relative stereo) [Compound 2082, 6-(((1s,4s)-4-(2-acetyl-7-(7-(difluoromethyl)-6-(1-methyl-1H-pyrazol-4-yl)-3,4-dihydroquinolin-1(2H)-yl)isoindolin-5-yl)cyclohexyl)methyl)-2-(2,6-dioxopiperidin-3-yl)-6,7-dihydropyrrolo[3,4-f]isoindole-1,3(2H,5H)-dione], the IC50 was 25 nM in test [1], 47 nM in test [2], 4 nM in test [3] and 13 nM in test [4].
For the compound `C=CS(=O)(=O)N[C@H]1CC[C@H](n2nc(N3CCCc4cc(-c5cnn(C)c5)c(C(F)F)cc43)c3c2CCN(C(C)=O)C3)CC1` [Compound 1387, N-((1r,4r)-4-(5-acetyl-3-(7-(difluoromethyl)-6-(1-methyl-1H-pyrazol-4-yl)-3,4-dihydroquinolin-1(2H)-yl)-4,5,6,7-tetrahydro-1H-pyrazolo[4,3-c]pyridin-1-yl)cyclohexyl)ethenesulfonamide], the IC50 in test [1] came to 3 nM; in test [2], 18 nM; in test [3] it was 1 nM; in test [4], 3 nM.
Regarding `C=CS(=O)(=O)N1CCC(n2c([C@@H]3CCCC(=O)N3c3ccc(F)c(F)c3)nc3cc(-c4c(C)noc4C)ccc32)CC1` [Compound 1373, (S)-1-(3,4-difluorophenyl)-6-(5-(3,5-dimethylisoxazol-4-yl)-1-(1-(vinylsulfonyl)piperidin-4-yl)-1H-benzo[d]imidazol-2-yl)piperidin-2-one], the IC50 was found to be 44 nM in test [1], 208 nM in test [2], 12 nM in test [3] and 51 nM in test [4].
Take `C=CS(=O)(=O)N[C@H]1CC[C@@H](n2nc(N3CCCc4cc(-c5cnn(C)c5)c(C(F)F)cc43)c3c2CCN(C(C)=O)C3)CC1` [Compound 1388, N-((1s,4s)-4-(5-acetyl-3-(7-(difluoromethyl)-6-(1-methyl-1H-pyrazol-4-yl)-3,4-dihydroquinolin-1(2H)-yl)-4,5,6,7-tetrahydro-1H-pyrazolo[4,3-c]pyridin-1-yl)cyclohexyl)ethenesulfonamide]: the IC50 in test [1] was determined as 3 nM; in test [2] it was 15 nM; in test [3], 1 nM; in test [4] it was 2 nM.
For `CC(=O)N1Cc2cc([C@H]3CC[C@@H](NC(=O)/C=C/CN(C)C)CC3)cc(N3CCCc4cc(-c5cnn(C)c5)c(C(F)F)cc43)c2C1` [Compound 1358], the IC50 worked out at 598 nM in test [1], 4940 nM in test [2] and 39 nM in test [3].
`C=CS(=O)(=O)N1CCC(n2nc(N3CCCc4cc(-c5cnn(C)c5)c(C(F)F)cc43)c3c2CCN(C(=O)NC)C3)CC1` [Compound 1369, 3-(7-(difluoromethyl)-6-(1-methyl-1H-pyrazol-4-yl)-3,4-dihydroquinolin-1(2H)-yl)-N-methyl-1-(1-(vinylsulfonyl)piperidin-4-yl)-1,4,6,7-tetrahydro-5H-pyrazolo[4,3-c]pyridine-5-carboxamide]: the IC50 worked out at 1 nM in test [1], 4 nM in test [2], 0.4 nM in test [3] and 1 nM in test [4].
In the case of `C=CS(=O)(=O)N[C@H]1CC[C@H](c2cc3c(c(N4CCCc5cc(-c6cnn(C)c6)c(C(F)F)cc54)c2)CN(C(=O)NC)CC3)CC1` [Compound 1367, 8-(7-(difluoromethyl)-6-(1-methyl-1H-pyrazol-4-yl)-3,4-dihydroquinolin-1(2H)-yl)-N-methyl-6-((1r,4r)-4-(vinylsulfonamido)cyclohexyl)-3,4-dihydroisoquinoline-2(1H)-carboxamide], the IC50 came to 33 nM in test [1], 135 nM in test [2], 4 nM in test [3] and 46 nM in test [4].
`C=CS(=O)(=O)N[C@H]1CC[C@@H](c2cc3c(c(N4CCCc5cc(-c6cnn(C)c6)c(C(F)F)cc54)c2)CN(C(=O)NC)CC3)CC1` [Compound 1366, 8-(7-(difluoromethyl)-6-(1-methyl-1H-pyrazol-4-yl)-3,4-dihydroquinolin-1(2H)-yl)-N-methyl-6-((1s,4s)-4-(vinylsulfonamido)cyclohexyl)-3,4-dihydroisoquinoline-2(1H)-carboxamide]: the half-inhibitory concentration (IC50) was 24 nM in test [1], 131 nM in test [2], 5 nM in test [3] and 28 nM in test [4].
As for `CC(=O)N1Cc2cc([C@H]3CC[C@H](NC(=O)CCl)CC3)cc(N3CCCc4cc(-c5cnn(C)c5)c(C(F)F)cc43)c2C1` [Compound 1362], the IC50 in test [1] came to 3 nM; in test [2], 51 nM; in test [3] it was 2 nM; in test [4] it was 6 nM.
Turning to `CC(=O)N1Cc2cc(C3CCN(Cc4ccc(COc5cccc6c5CN(C5CCC(=O)NC5=O)C6=O)cc4)CC3)cc(N3CCCc4cc(-c5cnn(C)c5)c(C(F)F)cc43)c2C1` (stereo not shown) [Compound 2006, 3-[4-({4-[(4-{2-acetyl-7-[7-(difluoromethyl)-6-(1-methylpyrazol-4-yl)-3,4-dihydro-2H-quinolin-1-yl]-1 ,3-dihydroisoindol-5-yl}piperidin-1-yl)methyl]phenyl}methoxy)-1-oxo-3H-isoindol-2-yl]piperidine-2,6-dione], the IC50 in test [1] came to 0.27 nM; in test [2], 0.47 nM; in test [3], 0.19 nM; in test [4], 0.4 nM.
For `C=CS(=O)(=O)N[C@H]1CC[C@H](n2nc(N3CCCc4cc(-c5cnn(C)c5)c(C(F)F)cc43)c3c2CCN(C(=O)NC)C3)CC1` [Compound 1374, 3-(7-(difluoromethyl)-6-(1-methyl-1H-pyrazol-4-yl)-3,4-dihydroquinolin-1(2H)-yl)-N-methyl-1-((1r,4r)-4-(vinylsulfonamido)cyclohexyl)-1,4,6,7-tetrahydro-5H-pyrazolo[4,3-c]pyridine-5-carboxamide], the IC50 stood at 1 nM in test [1], 11 nM in test [2], 1 nM in test [3] and 1 nM in test [4].
On to `CC(=O)N1Cc2cc(C3CCN(CC4CCN(CCOc5cccc6c5CN(C5CCC(=O)NC5=O)C6=O)CC4)CC3)cc(N3CCCc4cc(-c5cnn(C)c5)c(C(F)F)cc43)c2C1` (stereo not shown) [Compound 2054], for which the IC50 in test [1] amounted to 0.33 nM; in test [2], 0.84 nM; in test [4] it was 0.26 nM.
As for `CC(=O)N1Cc2cc(C3CCN(CC4CCN(CCNc5ccc6c(c5)CN(C5CCC(=O)NC5=O)C6=O)CC4)CC3)cc(N3CCCc4cc(-c5cnn(C)c5)c(C(F)F)cc43)c2C1` (stereo not shown) [Compound 2062], the results for the IC50 in test [1], in test [2] and in test [4] were 0.04 nM, 0.24 nM and 0.06 nM, respectively.
Consider `CC(=O)N1Cc2cc([C@H]3CC[C@@H](NC(=O)CCl)CC3)cc(N3CCCc4cc(-c5cnn(C)c5)c(C(F)F)cc43)c2C1` [Compound 1361], for which the half-maximal inhibitory concentration (IC50) in test [1] was found to be 2 nM; in test [2] it was 106 nM; in test [3] it was 1 nM.
Take `CC(=O)N1Cc2cc([C@H]3CC[C@H](NC(=O)/C=C/CN(C)C)CC3)cc(N3CCCc4cc(-c5cnn(C)c5)c(C(F)F)cc43)c2C1` [Compound 1356]: the IC50 was found to be 464 nM in test [1], 4270 nM in test [2] and 53 nM in test [3].
As to `CC#CC(=O)N1CCC(c2cc3c(c(N4CCCc5cc(-c6cnn(C)c6)c(C(F)F)cc54)c2)CN(C(C)=O)C3)CC1` [Compound 1359], the figures for the IC50 in test [2] and in test [3] were 545 nM and 15 nM, respectively.
For `C=CS(=O)(=O)N1CCC(c2cc3c(c(N4CCCc5cc(-c6cnn(C)c6)c(C(F)F)cc54)c2)CN(C(C)=O)CC3)CC1` [Compound 1368], the IC50 in test [2] stood at 1390 nM; in test [3], 168 nM.
